Values of other authors, collected in US11028348B2, “Naturally-derived antimicrobial cleaning solutions” (ProNatural Brands LLC, priority 2014, dated 2021).

Conditions: standard pKa

For O=C(O)CC(O)(CC(=O)O)C(=O)O [citric acid], the pKa1 is listed as 3.1, the pKa2 is listed as 4.8 and the pKa3 is listed as 6.4.
